Earlier results, collected in patent US10975131B2, “Factor H-Fc immunotheraphy” (priority 2015, dated 2021).
Read-outs that look alike come from different tables or passages of the source.

Tested on: N. gonorrhoeae strains

## CO/N=C(\C(=O)N[C@@H]1C(=O)N2C(C(=O)O)=C(CSc3nc(=O)c(=O)[nH]n3C)CS[C@H]12)c1csc(N)n1 [Ceftriaxone, ceftriaxone]
Strain CTXr (Spain), resistant
  Ceftriaxone MIC: 2 (resistant) ug/ml
Strain FA1090
  Ceftriaxone MIC: 0.004 µg/mL
Strain H041, resistant
  Ceftriaxone MIC: 2-4 (resistant) ug/ml
Strain MS11
  Ceftriaxone MIC: 0.032 µg/mL
Strain NJ-1, agar dilution
  Ceftriaxone MIC: 0.023 µg/mL
Strain NJ-11, agar dilution
  Ceftriaxone MIC: 0.047 µg/mL
Strain NJ-15, agar dilution
  Ceftriaxone MIC: 0.047 µg/mL
Strain NJ-19, agar dilution
  Ceftriaxone MIC: 0.032 µg/mL
Strain NJ-26, agar dilution
  Ceftriaxone MIC: 0.032 µg/mL
Strain NJ-27, agar dilution
  Ceftriaxone MIC: 0.064 µg/mL
Strain NJ-36, agar dilution
  Ceftriaxone MIC: 0.032 µg/mL
Strain NJ-44, agar dilution, elevated MIC to CRO
  Ceftriaxone MIC: 0.125 (elevated ug/ml
Strain NJ-48, agar dilution, elevated MIC to CRO
  Ceftriaxone MIC: 0.125 (elevated ug/ml
Strain NJ-60, agar dilution, resistant
  Ceftriaxone MIC: 0.380 (resistant) ug/ml
